Results as given in EP2230235A1, “Botryosphaerones, novel depsidones and their use as medicaments” (Leibniz-Institut für Naturstoff-Forschung und …, priority 2009, dated 2010).
Values after ≈ are worked out from the molar mass of the structure shown. Like-named read-outs stand apart in the source and are kept apart here.

Key:
Format in all cases: cell-based
Aspergillus terreus = experiment: MIC determination, broth microdilution method (NCCLS guidelines); settings: A. terreus; for MIC: broth microdilution, 37°C, 24 h; for antimicrobial efficacy: result in words
Excerpt: (§1) Antifungal activities were studied qualitatively by agar diffusion tests according to the literature (Stuttgart, D. A. V., European Pharmacopoeia, 3rd ed.1997, 13, 118; Afonin, S.; Glaser, R. W.; Berditchevskaia, M.; Wadhwani, P.; Guhrs, K. H.; Mollmann, U.; Perner, A.; Ulrich, A. S. Chembiochem. 2003, 4, (11), 1151-1163; Standards, N. C. f. C. L., Reference Method for Broth Dilution Susceptibility Testing of Filamentous Fungi; Approved Standard. M38-A, Wayne, PA, USA, NCCls 2002, 22) and quantitatively by determination of minimal inhibitory concentration (MIC) according to the NCCLS guidelines using the broth microdilution method. Fifty microliters of the test compound solution in methanol were serially diluted by factor two with the culture medium (RPMI 1640 with L-glutamine, MOPS and without sodium bicarbonate, LONZA Verviers SPRL, Belgium). Then, the wells were inoculated with 50 µL of the test organism to give a final concentration of 6x10^3 CFU mL^-1. After incubation of the microtiter plates at 37°C (Aspergillus terreus) for 24 h, the MIC-values were read with a Nepheloscan Ascent 1.4 automatic plate reader (Lab systems, Vantaa, Finnland) as the lowest dilution of compound allowing no visible growth. The MIC for Fusarium oxysporum and Bacillus subtilis was determined by the agar diffusion method. Fifty microliters of each of the 12 serial twofold dilutions were filled in agar (malt extract agar from Roth, Karlsruhe, Germany; seeded with 0.5 mL of a pretested mycelial solution) holes of 9 mm in diameter. After incubation for 24 h the MIC was read as the lowest concentration giving an inhibition zone.

Fusarium oxysporum = experiment: MIC determination, agar diffusion method; settings: 24 h
Excerpt: as §1, with “Fifty microliters of each of the 12 serial twofold dilutions were filled in agar (malt extract agar from Roth, Karlsruhe, Germany; seeded with 0.5 mL of a pretested mycelial solution) holes of 9 mm in diameter. After incubation for 24 h the MIC was read as the lowest concentration giving an inhibition zone.” left out

Bacillus subtilis = experiment: MIC determination / antibacterial activity, agar diffusion method; settings: for antimicrobial efficacy / antibacterial activity: B. subtilis, result in words
Excerpt: as §1

HUVEC = experiment: Antiproliferative assay (methylene blue staining); settings: Homo sapiens
Protocol: (§2) Antiproliferative and Cytotoxic Assays: Cells and culture conditions. Cells of HUVEC (ATCC CRL-1730), K-562 (DSM ACC 10) and HeLa (DSM ACC 57) were cultured in DMEM (CAMBREX 12-[…]), RPMI 1640 (CAMBREX 12-[…]) and RPMI 1640 (CAMBREX 12-[…]) respectively. All cells were grown in the appropriate cell culture medium supplemented with 10 mL L^-1 ultraglutamine 1 (Cambrex 17-[…]/U1), 500 μ[…] gentamicin sulfate (CAMBREX 17-518Z), and 10 % heat inactivated fetal bovine serum (PAA A15-144) at 37 °C in high density polyethylene flasks (NUNC 156340). Antiproliferative assay. The test substances were dissolved in DMSO before being diluted in DMEM. The adherent cells were harvested at the logarithmic growth phase after soft trypsinization, using 0.25 % trypsin in PBS containing 0.02 % EDTA (Biochrom KG L 2163). For each experiment, approximately 10.000 cells were seeded with 0.1 mL culture medium per well of the 96-well microplates (NUNC 167008). Method of evaluation. For estimating the influence of chemical compounds on cell proliferation of K-562, the numbers of viable cells present in multiwell plates were determined via CellTiter-Blue® assay. The indicator dye resazurin was used to measure the metabolic capacity of cells as an indicator of cell viability. […] The optical densities were measured at 660 nm in SUNRISE microplate reader (TECAN). […]

HeLa = experiment: Cytotoxic assay (methylene blue staining); settings: Homo sapiens, 72 hours incubation, read-out: Cytotoxicity CC50 (HeLa)
Protocol: Antiproliferative and Cytotoxic Assays: Cells and culture conditions. Cells of HUVEC (ATCC CRL-1730), K-562 (DSM ACC 10) and HeLa (DSM ACC 57) were cultured in DMEM (CAMBREX 12-614F), RPMI 1640 (CAMBREX 12-167F) and RPMI 1640 (CAMBREX 12-167F) respectively. All cells were grown in the appropriate cell culture medium supplemented with 10 mL L^-1 ultraglutamine 1 (Cambrex 17-605E/U1), 500 µL L^-1 gentamicin sulfate (CAMBREX 17-518Z), and 10 % heat inactivated fetal bovine serum (PAA A15-144) at 37 °C in high density polyethylene flasks (NUNC 156340).
Cytotoxic assay. For the cytotoxic assay, HeLa cells were pre-incubated for 48 hours without the test substances. The dilutions of the compounds were carried out carefully on the subconfluent monolayers of HeLa cells after the pre-incubation time. Cells were incubated with dilutions of the test substances for 72 hours at 37 °C in a humidified atmosphere and 5 % CO2.
Method of evaluation. For estimating the influence of chemical compounds on cell proliferation of K-562, the numbers of viable cells present in multiwell plates were determined via CellTiter-Blue® assay. The indicator dye resazurin was used to measure the metabolic capacity of cells as an indicator of cell viability. […] The optical densities were measured at 660 nm in SUNRISE microplate reader (TECAN). […]

K-562 = experiment: Antiproliferative assay (CellTiter-Blue); settings: Homo sapiens, K562; read-out: Gl50 (K-562)
Protocol: as §2

[1] = Aspergillus terreus, read-out: MIC

Compound | MIC (Aspergillus terreus) [µg/mL] | antimicrobial efficacy (Aspergillus terreus) | MIC (Aspergillus terreus; [1]) [µg/mL] | MIC (Fusarium oxysporum) [µg/mL] | antimicrobial efficacy / antibacterial activity (Bacillus subtilis) | GI50 (HUVEC) [µM] | CC50 (HeLa) [µM] | GI50 (K-562) [µM] | MIC (Bacillus subtilis; Bacillus subtilis, 24 h) [µg/mL] | antibacterial activity (Bacillus subtilis; Bacillus subtilis, agar diffusion assays, 400 µg mL^-1)
C[C@@H]1[C@H](O)[C@@H](C)/C=C/C=C/CC/C=C/C=C/C=C/C=C/C(O[C@H]2O[C@H](C)[C@@H](O)[C@H](N)[C@@H]2O)CC2O[C@](O)(CC(O)C(O)CCC(O)CC(O)CC(O)CC(=O)O[C@H]1C)CC(O)C2C(=O)O (stereo partly shown) [nystatin, reference compound] | 12.50 (≈ 13.5 µM) |  |  |  |  |  |  |  |  | 
Cc1cc(O)cc2c1Oc1c(C=O)c(O)cc(C)c1C(=O)O2 [Compound 1, botryosphaerone A] |  | active | 7.81 (≈ 26 µM) | 57.5 (≈ 191 µM) | active | 1.67 | 97 | 0.84 |  | 
botryosphaerone D [Compound 4] |  |  |  |  | antibacterial activity |  |  |  |  | 
Cc1cc(O)c(C)c2c1Oc1c(C=O)c(O)cc(C)c1C(=O)O2 [Compound 2, Botryosphaerone B] |  | active | 15.6 (≈ 49.7 µM) | 75 (≈ 239 µM) | active | 0.07 | 36.4 | 0.003 |  | 
Cc1cc(O)c(C)c2c1Oc1c(CO)c(O)cc(C)c1C(=O)O2 [Compound 3, botryosphaerone C] |  |  |  |  | antibacterial activity |  |  |  | 400 (≈ 1260 µM) | antibacterial activity
